These are literature values, as cited in patent publication EP1566168A1, “Dermo-cosmetic compositions for depigmenting and use of it” (priority 2004, dated 2005).

Data set [1] relates to peau. Particulars: applied to the skin.
The conditions of data set [2]: oil.

On to `CCCCCCCCCCCCCCCC(=O)OCc1cc(=O)c(OC(=O)CCCCCCCCCCCCCCC)co1` [acide dipalmitoylkojique, 2-palmitoyloxy 5-palmitoyloxy γ-pyrone], for which, in data set [1], the propriétés irritantes result is “dépourvu de propriétés irritantes”. Moreover, in data set [2], the solubilité result is reported as “soluble dans l'huile”.
